Measured values taken from paper PMC8596843, “Platinum Cyclooctadiene Complexes with Activity against Gram‐positive Bacteria” (Chemmedchem, 2021).
Marks after values point to notes of the source that are not given here.

Columns and labels:
[1] = test system: Staphylococcus aureus ATCC 43300 (MRSA); test: microbe, parasite or virus in culture; type: cell-based; details: for MIC Sa: CO‐ADD screening; for MIC: n=2; for MIC values as low as (panel of S. aureus strains): lowest MIC within the S. aureus panel
Description: All compounds submitted to CO‐ADD are initially screened against five bacterial strains (Staphylococcus aureus (MRSA), E. coli, Klebsiella pneumoniae, Pseudomonas aeruginosa, Acinetobacter baumannii) and two fungal strains (Candida albicans, Cryptococcus neoformans) at a single concentration (32 μg/mL or 20 μM) performed as a high‐throughput primary screening.[[11], [17a]] Any compounds that show significant growth inhibition against any of the tested strains at this step are then evaluated in a dose‐response assay against these same strains. […]
Smiles: C1C=CCCC(=CC1)C1=CCCC=CCC1.C[Pt]C.C[Pt]C […]
ATCC strains were sourced from the American Type Culture Collection and NRS strains from NARSA (Network on Antimicrobial Resistance in Staphylococcus aureus) via BEI Resources (www.beiresources.org), with clinical MSSA and MRSA isolates from Prof Graeme Nimmo, Queensland […]
Health Central Pathology. […]
(§1) Antibacterial minimum inhibitory concentration (MIC) assay
Compound Assay Plate Preparation: Compounds were dissolved in DMSO at 10mM (CO-ADD screening) or 4 mM (follow up screening) and were plated in a 2-fold dose response from 20 to 0.156 µM or 200 to 0.006 µM respectively, with a maximum of 0.5% or 1% DMSO, final in the assay […]
plated in a 2-fold dose response from 200 to 0.006 µM, with a maximum of 1 % DMSO, final in the assay concentration. (in-house screening)
For all the bacterial assays, each strain was cultured in Cation-adjusted Mueller Hinton broth (CAMHB; Bacto Laboratories 212322) at 37 °C overnight. A sample of each culture was then diluted 40-fold in fresh CAMHB and incubated at 37 °C for 1.5–3 h. The resultant mid-log phase cultures were diluted with CAMHB (CFU mL−1 measured by OD600), then added to each well of the compound-containing plates (384-well non-binding surface (NBS) plates; Corning CLS3640), giving a cell density of 5 × 10^5 CFU mL−1 and a total volume of 50 μL. Plates were covered and incubated at 37 °C for 18 h without shaking. Inhibition of bacterial growth was determined measuring absorbance at 600 nm (OD600), using media only as negative control and bacteria without inhibitors as positive control. MIC values were determined as the lowest concentration at which the growth was inhibited at ≥80%. Colistin sulfate (Sigma C4461) and vancomycin HCl (Sigma 861987) were used as internal controls on each plate for Gram-negative and Gram-positive bacteria, respectively. […]

[2] = test system: HEK-293 ATCC CRL-1573 human embryonic kidney cells; type: cell-based
Description: As part of the CO‐ADD screening, all compounds that show any activity against a microbial strain are evaluated for their cytotoxicity against human embryonic kidney cells (HEK‐293) and for haemolysis against human red blood cells. None of the compounds tested for cytotoxicity (Pt1‐9 and Pd1) caused any significant cell death up to concentrations of 100 μM. […] We have also observed higher IC50 values for the methylated complexes Pt3 and Pt4 against HeLa cells in previous work.[16] […]
inhibitors as positive control.
Tamoxifen (Sigma T5648) was used
as internal control on each plate.
in a Neubauer haemocytometer. […]

[3] = test system: Staphylococcus aureus NRS 17, GISA; test: Antibacterial MIC assay, Gram-positive panel; type: cell-based; details: n=2
Method in brief: (§2)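 MIC is defined here as the lowest concentration inhibiting growth by ≥80% relative to untreated bacteria. The assay used OD600 in CAMHB after an 18 h, 37 °C incubation at 5 × 10^5 CFU/mL. Compound was dosed in 2-fold steps with DMSO capped at 0.5–1% final.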

[4] = test system: Staphylococcus epidermidis ATCC 14990, type strain; test: Antibacterial MIC assay, Gram-positive panel; type: cell-based; details: n=4
Method in brief: as §2

[5] = test system: E. coli lpxC (non‐efficient lipid A production mutant); test: MIC against E. coli membrane mutants; type: cell-based, Escherichia coli; details: Table S2
Description: as §1
(§3) concentration. (in-house screening)
(§4) Bacto Laboratories 212322) at 37 °C overnight.
(§5) The resultant mid-log phase cultures were diluted
(§6) Gram-negative and Gram-positive bacteria, respectively.
(§7) final concentration range of 0.8 – 100 µM.
(§8) inhibitors as positive control. […]

[6] = test system: E. coli tolC (efflux pump deficient); test: MIC against E. coli membrane mutants; type: cell-based, Escherichia coli; details: Table S2
Description: as §1, §3, §4, §5, §6, §7, §8

[7] = test system: B. subtilis ATCC 6051 type strain; test: MIC in the presence of human serum (serum reversal); type: cell-based, Bacillus subtilis; details: 10% serum
Excerpt: (§9) To obtain some initial insight into the apparent disparity between in vitro and in vivo results, we repeated the MIC experiments against four selected Gram‐positive strains in the presence of 10 % or 50 % human serum (Table S3). Pt1 and Pt2 maintained some antibacterial activity against B. subtilis in the presence of 10 % serum, but a complete loss of activity was observed against MRSA and GISA (50 % serum), and VRE (10 % serum). […] Systemic administration is therefore unlikely to be a suitable administration route for this class of compounds unless an alternative formulation that can prevent serum binding (e. g. by lipid or nanoparticle encapsulation) can be found. […] Further in vivo studies should therefore focus on more suitable disease models. […]
as §1, §3, §4, §5, §6, §7, §8

[8] = test system: S. aureus ATCC 43300 MRSA; test: as above; type: cell-based, Staphylococcus aureus; details: 50% serum
Method in brief: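 MIC determination repeated in the presence of 10% or 50% human serum. Bacteria grown overnight at 37 °C, diluted from mid-log cultures, and tested at a final concentration range of 0.8–100 µM.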

[9] = test system: E. faecium ATCC 51559 MDR, VRE; test: as above; type: cell-based, Enterococcus faecium; details: 10% serum
Excerpt: as §9, §1, §3, §4, §5, §6, §7, §8

[10] = test system: Galleria mellonella larvae; test: In vivo toxicity in moth larvae; details: for concentration without any toxicity in G. mellonella: 10 μL injected, five larvae per concentration, survival and health index over 96 hours, highest tested; for dosage without any toxicity in G. mellonella: equates to 0.4 mM, 10 μL injection
Description: Following a protocol previously reported by us we used larvae of the greater wax moth Galleria mellonella as a model organism for in vivo toxicity and efficacy.[20] […] Briefly, stock solutions of Pt1 and Pt2 were prepared in DMSO and diluted to final concentrations of 0.4 mM, 100 μM, 10 μM and 1 μM. […] For each concentration five larvae were injected with 10 μL and monitored for 96 hours for survival and health using the G. mellonella Health Index Scoring System.[22] […]
G. mellonella larvae were reared in controlled environmental room at Macquarie University, Sydney, Australia at 26 °C and 65% humidity with a 12-hours light/dark cycle. Larvae (~200 mg) were individually injected with 10 µL of chemical into the last right proleg using a 100 μL syringe (Hamilton Ltd). The […]
Each compound was dissolved in DMSO and diluted to final concentrations of 1 µM, 100 µM and 10 mM. We injected 5 larvae for each dilution of each compound.
Larvae injected with different dilutions of DMSO (10-1, 10-3 and 10-5) were included as negative controls.
Following injection, the larvae were incubated at 26 °C and monitored every 24 h for 4 days. Larval performance was assessed according to the G. mellonella Health Index Scoring System.[1] The experiments were repeated three separate times. […]

SMILES | MIC Sa [1] | MIC ([1]; Table S1 panel) | CC50 [2] | MIC ([3]; Table S1 panel) | MIC ([4]; Table S1 panel) | MIC E. coli lpxC [5] | MIC E. coli TolC [6] | MIC in the presence of human serum [7] | MIC in the presence of human serum [8] | MIC in the presence of human serum [9] | MIC ([1]; Table 2 panel) | MIC values as low as (panel of S. aureus strains) [1] | MIC ([4]; Table 2 panel) | concentration without any toxicity in G. mellonella [10] | dosage without any toxicity in G. mellonella [10] | MIC ([3]; Table 2 panel)
CCC1=CCCC=CCC1.[CH3][Pt][Cl] [Pt7] | >20 µM | 200 µM | > 100 µM | 200 µM | 200 µM | > 200 µM | > 200 µM | > 200 µM | > 200 µM | > 200 µM |  |  |  |  |  | 
C1=C\CC/C=C\CC/1.[Cl-].[Cl-].[Pt+2] [Pt1, Pt(COD)Cl2] | 0.625 to 2.5 µM |  | > 100 µM |  |  |  |  |  |  |  | 0.39^[b] μg/mL | 0.39 µM | 0.781^[a] μg/mL | ≥ 400 µM | 6 to 7.5 mg/kg | 
C1=CCC/C=C\CC1.[I][Pt][I] [Pt2, Pt(COD)I2] | 1.25 µM |  | > 100 µM |  |  | 100 µM |  |  |  |  | 0.39–0.78^[b] μg/mL | 0.39 µM | 1.56^[a] μg/mL | ≥ 400 µM | 9 to 11 mg/kg | 0.78–1.56^[b] μg/mL
